Measured values from ChEMBL document CHEMBL1201862, “PubChem BioAssay data set” (2004).
Calls of active or inactive are those of the source. Cut-off read from the data, not from the text of the source, for most assays here: actives have a measured EC50 and inactives only a lower limit.

How the values were obtained:
[1] = NIH-3T3 fibroblast cytotoxicity, dose response, cytotoxicity control, cell-based, fluorescence, Alamar Blue, secondary assay (AID 2327); assay type: functional;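 note: NIH-3T3 mouse fibroblasts cultured with fluconazole at 8 µg/mL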
[2] = Luminescence Cell-Based Dose Response HTS to Identify Inhibitors of Luciferase Translation or Activity in H4-C Neuroglioblastoma Cells. [Related pubchem assays: 1813 (Primary HTS), 1827 (Project Summary)]; assay type: functional
[3] = Luminescence Cell-Based Dose Response HTS to Identify Activators of Luciferase Translation or Activity in H4-C Neuroglioblastoma Cells. [Related pubchem assays: 1829 (Project Summary), 1814 (Primary HTS)]; assay type: functional
[4] = inhibitors of firefly luciferase expression or activity, dose response, H4 neuroglioma cells, luminescence (AID 1990); assay type: functional, cell-based
[5] = luciferase reporter signal reduction – luminescence, H4-C neuroglioblastoma cells, dose response (AID 2458); assay type: functional, cell-based;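 note: H4 neuroglioblastoma cells stably carrying a luciferase reporter gene fusion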
[6] = Luminescence Cell-Based Dose Retest to Confirm Activators of 5'UTR Stem-Loop Driven Alpha-Synuclein mRNA Translation in H4 Neuroglioblastoma Cells. [Related pubchem assays (depositor defined):AID1813, AID1829]; assay type: functional
[7] = Luminescence Cell-Based Dose Response HTS to Identify Activators of 5'UTR Stem-Loop Driven Prion Protein mRNA Translation in H4-C Neuroglioblastoma Cells. [Related pubchem assays: 1829 (Project Summary), 1814 (Primary HTS)]; assay type: functional
[8] = tested on: Streptococcus sp. 'group A'; assay: growth inhibition of control SK(-) GAS strain, dose response, counter-screen for streptokinase expression inhibitor project, luminescence, kanamycin, BacTiterGlo, confirmation (AID 1900); assay type: functional, organism-based
[9] = Luminescence Cell-Based Dose HTS Response to Identify Inhibitors of 5'UTR Stem-Loop Driven Prion Protein mRNA Translation in H4-C Neuroglioblastoma Cells. [Related pubchem assays (depositor defined):AID1814, AID1827]; assay type: functional
[10] = cells; assay type: functional, cell-based
[11] = Luminescence Cell-Based Dose Response HTS to Identify Inhibitors of 5'UTR Stem-Loop Driven Prion Protein mRNA Translation in H4 Neuroglioblastoma Cells. [Related pubchem assays: 1827 (Project Summary), 1813 (Primary HTS)]; assay type: functional
[12] = target: Beta-galactosidase (Escherichia coli, UniProt Q8VNN2); assay: PubChem AID 485352; assay type: functional
[13] = inhibitors of SNCA 5'UTR-driven reporter translation, confirmation, H4 neuroglioma cells, luminescence (AID 1988); assay type: functional, cell-based
[14] = C. albicans growth with fluconazole, confirmation, fluorescence, retest (AID 2467); assay type: functional, cell-based
[15] = Luminescence Cell-Based Dose Confirmation HTS to Identify Inhibitors of 5'UTR Stem-Loop Driven Alpha-Synuclein mRNA Translation in H4 Neuroglioblastoma Cells. [Related pubchem assays: 1827 (Project Summary), 1813 (Primary HTS)]; assay type: functional
[16] = inhibitors of intracellular T. cruzi replication, confirmation, NIH3T3 host cells, beta-gal luminescence (AID 2044); assay type: functional, cell-based;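 note: intracellular parasites grown in NIH/3T3 mouse fibroblasts as host cells; luminescent beta-galactosidase reporter signal from transgenic T. cruzi replicating inside host cells; inhibitors lower the luminescence signal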
[17] = target: T1, Type-1 angiotensin II receptor (Homo sapiens, UniProt P30556); assay: AT1 receptor antagonists, dose response, selectivity assay for APJ receptor antagonist project, cell-based, uHTS hits (AID 463214); assay type: functional;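 note: antagonist potency against angiotensin II stimulated AT1 response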
T1 sequence (P30556 whole entry): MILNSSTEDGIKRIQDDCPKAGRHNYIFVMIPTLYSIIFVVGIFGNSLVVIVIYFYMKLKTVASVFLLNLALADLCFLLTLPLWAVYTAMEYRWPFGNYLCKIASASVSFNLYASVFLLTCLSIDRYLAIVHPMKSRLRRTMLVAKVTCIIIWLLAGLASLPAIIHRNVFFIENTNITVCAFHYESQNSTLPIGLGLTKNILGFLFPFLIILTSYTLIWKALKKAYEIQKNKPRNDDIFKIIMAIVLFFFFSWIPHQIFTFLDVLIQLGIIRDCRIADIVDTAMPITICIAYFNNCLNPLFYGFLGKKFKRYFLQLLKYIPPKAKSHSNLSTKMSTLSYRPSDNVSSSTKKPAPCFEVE

[18] = target: T2, Serine/threonine-protein phosphatase (Candida dubliniensis (strain CD36 / CBS 7987 / NCPF 3949 / NRRLY-17841) (Yeast), UniProt B9W6M3); assay: calcineurin pathway inhibitors in yeast reporter, dose response, S. cerevisiae, CDRE-lacZ, luminescence, secondary (AID 2388); assay type: functional, cell-based;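 note: yeast reporter cells carrying a calcineurin-responsive lacZ construct stimulated with calcium chloride; luminescent beta-galactosidase reporter signal in whole cells rather than isolated phosphatase activity; potency for inhibition where a drop in reporter signal means calcineurin blockade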
T2 sequence (B9W6M3 whole entry): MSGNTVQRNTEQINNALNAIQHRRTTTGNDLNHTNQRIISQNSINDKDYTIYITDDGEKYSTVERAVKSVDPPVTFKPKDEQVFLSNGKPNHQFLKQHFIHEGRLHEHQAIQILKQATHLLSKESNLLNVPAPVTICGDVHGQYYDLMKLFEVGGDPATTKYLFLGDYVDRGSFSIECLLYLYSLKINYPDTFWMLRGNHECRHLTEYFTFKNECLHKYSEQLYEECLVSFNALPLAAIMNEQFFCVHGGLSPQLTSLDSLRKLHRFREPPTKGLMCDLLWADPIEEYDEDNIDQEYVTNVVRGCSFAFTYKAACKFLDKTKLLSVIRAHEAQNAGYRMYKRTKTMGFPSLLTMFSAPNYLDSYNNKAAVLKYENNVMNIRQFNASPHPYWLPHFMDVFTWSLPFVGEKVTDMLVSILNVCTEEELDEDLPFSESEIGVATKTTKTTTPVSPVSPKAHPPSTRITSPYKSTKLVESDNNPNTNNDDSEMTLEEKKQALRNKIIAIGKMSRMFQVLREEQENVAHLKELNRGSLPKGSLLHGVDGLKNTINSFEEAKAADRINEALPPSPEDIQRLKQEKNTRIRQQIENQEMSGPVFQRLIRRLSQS

[19] = cytotoxicity toward NIH3T3 fibroblasts, dose response, counter-screen, cell-based, ATP luminescence, mouse fibroblasts (AID 2010); assay type: functional;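 note: cells exposed to compound for about 90 hours before reading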
[20] = target: Induced myeloid leukemia cell differentiation protein Mcl-1 (Homo sapiens, UniProt Q07820); assay type: functional
[21] = tested on: Streptococcus; assay: Group A Streptococcus viability loss, dose response, counter-screen for streptokinase expression inhibitor project, luminescence, BacTiterGlo (AID 1915); assay type: functional, organism-based;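 note: potency for reduction of bacterial viability or growth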
[22] = inhibitors of SNCA 5'UTR-driven translation, confirmation, luminescence, H4 neuroglioblastoma cells, dose confirmation (AID 2454); assay type: functional, cell-based;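 note: H4 neuroglioblastoma cells carrying an alpha-synuclein 5'UTR luciferase reporter; potency for inhibition of the luciferase signal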
[23] = cytotoxicity in HEK-293T cells, dose response, cytotoxicity control for TCR NF-kB inhibitor project, luminescence, T-cell screen hits (AID 489026); assay type: functional, cell-based;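 note: cells exposed to compound about 14 hours before the viability readout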
[24] = target: Nonstructural protein 1 (Influenza A virus, UniProt Q194T2); assay type: functional, Influenza A virus (A/California/07/2009(H1N1))
[25] = target: ATP-dependent molecular chaperone HSP82 (Candida albicans (strain WO-1) (Yeast), UniProt C4YTQ8); assay: loss of DOC-induced GRE-beta-galactosidase reporter signal, dose response, Hsp90 inhibitor project, S. cerevisiae, luminescence (AID 2400); assay type: functional, cell-based;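 note: beta-galactosidase luminescence from glucocorticoid response element reporter as proxy for Hsp90 function; inhibitor potency where signal loss means Hsp90 inhibition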
[26] = target: T3, Sphingosine 1-phosphate receptor 4 (Homo sapiens, UniProt O95977); assay: Late-stage fluorescence dose response cell-based assay to identify agonists of the Sphingosine 1-Phosphate Receptor 4 (S1P4): purchased compounds EC50. [Related pubchem assays (depositor defined):AID1509, AID1523, AID1563, AID1686, AID1701, AID1801]; assay type: functional
T3 sequence (O95977 whole entry): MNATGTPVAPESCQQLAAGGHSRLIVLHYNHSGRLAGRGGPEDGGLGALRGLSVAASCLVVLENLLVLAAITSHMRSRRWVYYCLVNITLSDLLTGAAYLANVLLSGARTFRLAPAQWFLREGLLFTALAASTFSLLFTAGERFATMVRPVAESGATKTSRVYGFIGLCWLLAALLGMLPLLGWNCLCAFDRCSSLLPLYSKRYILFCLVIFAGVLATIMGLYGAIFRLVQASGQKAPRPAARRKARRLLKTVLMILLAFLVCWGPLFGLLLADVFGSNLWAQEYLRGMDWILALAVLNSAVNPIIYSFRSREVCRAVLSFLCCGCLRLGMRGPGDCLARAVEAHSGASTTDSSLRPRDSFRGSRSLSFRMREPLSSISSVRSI

Chain of Induced myeloid leukemia cell differentiation protein Mcl-1 (Q07820 whole entry): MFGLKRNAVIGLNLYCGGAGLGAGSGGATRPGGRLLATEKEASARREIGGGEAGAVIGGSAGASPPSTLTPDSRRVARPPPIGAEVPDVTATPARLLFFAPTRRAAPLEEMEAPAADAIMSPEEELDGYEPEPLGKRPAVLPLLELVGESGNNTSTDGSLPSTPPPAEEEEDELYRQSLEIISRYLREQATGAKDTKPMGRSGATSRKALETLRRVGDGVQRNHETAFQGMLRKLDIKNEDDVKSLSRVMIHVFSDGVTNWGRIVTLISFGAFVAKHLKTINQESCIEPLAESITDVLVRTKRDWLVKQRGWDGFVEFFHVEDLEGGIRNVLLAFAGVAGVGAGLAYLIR
Chain of Beta-galactosidase (Q8VNN2 whole entry): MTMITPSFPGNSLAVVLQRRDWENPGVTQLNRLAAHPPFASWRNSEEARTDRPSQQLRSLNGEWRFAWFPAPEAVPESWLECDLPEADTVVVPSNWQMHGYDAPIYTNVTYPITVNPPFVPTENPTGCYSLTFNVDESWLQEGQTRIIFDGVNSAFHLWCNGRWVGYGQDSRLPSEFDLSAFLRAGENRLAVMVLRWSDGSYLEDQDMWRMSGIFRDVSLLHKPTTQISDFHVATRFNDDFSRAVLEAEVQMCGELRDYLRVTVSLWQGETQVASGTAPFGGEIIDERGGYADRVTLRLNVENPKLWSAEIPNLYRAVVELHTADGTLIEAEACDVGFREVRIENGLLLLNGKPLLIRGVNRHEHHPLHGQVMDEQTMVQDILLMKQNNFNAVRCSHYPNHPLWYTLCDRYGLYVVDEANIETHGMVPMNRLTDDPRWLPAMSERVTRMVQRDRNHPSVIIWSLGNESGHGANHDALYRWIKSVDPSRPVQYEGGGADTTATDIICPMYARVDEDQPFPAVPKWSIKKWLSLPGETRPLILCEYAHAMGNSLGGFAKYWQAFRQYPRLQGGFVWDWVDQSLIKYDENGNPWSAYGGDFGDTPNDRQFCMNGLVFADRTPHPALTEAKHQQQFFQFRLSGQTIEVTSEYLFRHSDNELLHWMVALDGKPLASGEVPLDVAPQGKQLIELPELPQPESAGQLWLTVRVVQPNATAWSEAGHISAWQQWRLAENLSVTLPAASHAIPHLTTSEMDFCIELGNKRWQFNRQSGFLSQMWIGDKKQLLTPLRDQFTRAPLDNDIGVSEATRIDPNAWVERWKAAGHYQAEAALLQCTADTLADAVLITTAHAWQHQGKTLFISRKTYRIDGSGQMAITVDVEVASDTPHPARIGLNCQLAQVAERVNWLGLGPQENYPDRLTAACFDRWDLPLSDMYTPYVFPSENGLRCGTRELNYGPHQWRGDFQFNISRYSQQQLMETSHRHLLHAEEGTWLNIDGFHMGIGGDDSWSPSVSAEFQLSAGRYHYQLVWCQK
Chain of ATP-dependent molecular chaperone HSP82 (C4YTQ8 whole entry): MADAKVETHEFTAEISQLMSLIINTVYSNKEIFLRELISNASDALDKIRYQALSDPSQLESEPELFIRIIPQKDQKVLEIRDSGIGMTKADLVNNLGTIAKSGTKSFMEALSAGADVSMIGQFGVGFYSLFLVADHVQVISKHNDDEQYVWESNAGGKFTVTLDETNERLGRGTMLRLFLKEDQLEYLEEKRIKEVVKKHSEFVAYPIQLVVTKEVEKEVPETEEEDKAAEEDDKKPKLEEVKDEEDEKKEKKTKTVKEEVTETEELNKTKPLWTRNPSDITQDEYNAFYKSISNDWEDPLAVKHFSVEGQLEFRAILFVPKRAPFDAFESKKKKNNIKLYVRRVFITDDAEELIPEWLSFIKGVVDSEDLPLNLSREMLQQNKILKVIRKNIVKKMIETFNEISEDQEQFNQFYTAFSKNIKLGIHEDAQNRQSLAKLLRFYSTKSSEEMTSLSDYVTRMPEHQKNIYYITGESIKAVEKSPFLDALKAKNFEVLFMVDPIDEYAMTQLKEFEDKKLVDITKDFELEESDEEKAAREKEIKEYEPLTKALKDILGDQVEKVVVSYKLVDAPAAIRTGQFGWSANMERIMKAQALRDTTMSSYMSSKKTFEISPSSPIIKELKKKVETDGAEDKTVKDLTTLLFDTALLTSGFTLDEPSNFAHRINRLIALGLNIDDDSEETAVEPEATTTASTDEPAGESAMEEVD
Chain of Nonstructural protein 1 (Q194T2 whole entry): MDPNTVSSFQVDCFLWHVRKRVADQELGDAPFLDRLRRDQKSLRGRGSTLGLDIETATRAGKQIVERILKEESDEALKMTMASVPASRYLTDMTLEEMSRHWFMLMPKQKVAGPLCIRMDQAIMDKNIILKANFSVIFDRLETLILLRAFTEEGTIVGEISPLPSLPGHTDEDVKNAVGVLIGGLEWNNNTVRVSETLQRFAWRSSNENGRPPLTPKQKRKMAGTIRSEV

For `O=[N+]([O-])c1ccc(O)c(/C=N/Nc2ccc(Cl)nn2)c1`, the EC50 [1] was 14600 nM (inconclusive), the EC50 [2] was 925 nM (active) and the EC50 [3] was 1050 nM (inconclusive). The EC50 [4] was 9520 nM (active), the EC50 [5] was 717 nM (active) and the EC50 [6] was 673 nM (inconclusive). For the same compound, the EC50 [7] was 375 nM (inconclusive), the EC50 [8] was 305 nM (active) and the EC50 [9] was 904 nM (active). The EC50 [10] was 779 nM (active), the EC50 [11] was > 120000 nM (not active) and the EC50 [12] was > 40000 nM (inactive). For the same compound, the EC50 [13] was < 100 nM (active), the EC50 [14] was 179 nM (active) and the EC50 [15] was 825 nM (active). The EC50 [16] was 633 nM (active), the IC50 [17] was 3630 nM (active) and the EC50 [18] was > 180000 nM (inactive). For the same compound, the EC50 [19] was < 6000 nM (inconclusive), the IC50 [20] was 14100 nM (active) and the EC50 [21] was 944 nM (active). The EC50 [22] was 650 nM (active), the IC50 [23] was > 80000 nM (inactive) and the IC50 [24] was 1320 nM (active). The EC50 [25] was > 150000 nM (inactive).

For `Cc1ccc(Cn2nc(C)c(C(=O)OC(C)C(=O)NCc3ccccc3)c2Cl)cc1` (stereo unspecified), the EC50 [26] was > 50000 nM (inactive).
